The record followed here is patent US20240018123A1, “COMPOUND FOR INHIBITING OR DISINTEGRATING ANDROGEN RECEPTOR, AND PHARMACEUTICAL USE THEREOF” (KOREA RESEARCH INSTITUTE OF CHEMICAL TECHNOLOGY, priority 2020, published 2024).

One series has as its target T1, Androgen receptor (AR) (Homo sapiens, UniProt P10275, T878A).
T1 construct: 5.5×10^5 LNCap cells were injected into each well of a 6-well plate; endogenous in cells; host or cells: LNCaP
T1 sequence (P10275 1-920 T878A): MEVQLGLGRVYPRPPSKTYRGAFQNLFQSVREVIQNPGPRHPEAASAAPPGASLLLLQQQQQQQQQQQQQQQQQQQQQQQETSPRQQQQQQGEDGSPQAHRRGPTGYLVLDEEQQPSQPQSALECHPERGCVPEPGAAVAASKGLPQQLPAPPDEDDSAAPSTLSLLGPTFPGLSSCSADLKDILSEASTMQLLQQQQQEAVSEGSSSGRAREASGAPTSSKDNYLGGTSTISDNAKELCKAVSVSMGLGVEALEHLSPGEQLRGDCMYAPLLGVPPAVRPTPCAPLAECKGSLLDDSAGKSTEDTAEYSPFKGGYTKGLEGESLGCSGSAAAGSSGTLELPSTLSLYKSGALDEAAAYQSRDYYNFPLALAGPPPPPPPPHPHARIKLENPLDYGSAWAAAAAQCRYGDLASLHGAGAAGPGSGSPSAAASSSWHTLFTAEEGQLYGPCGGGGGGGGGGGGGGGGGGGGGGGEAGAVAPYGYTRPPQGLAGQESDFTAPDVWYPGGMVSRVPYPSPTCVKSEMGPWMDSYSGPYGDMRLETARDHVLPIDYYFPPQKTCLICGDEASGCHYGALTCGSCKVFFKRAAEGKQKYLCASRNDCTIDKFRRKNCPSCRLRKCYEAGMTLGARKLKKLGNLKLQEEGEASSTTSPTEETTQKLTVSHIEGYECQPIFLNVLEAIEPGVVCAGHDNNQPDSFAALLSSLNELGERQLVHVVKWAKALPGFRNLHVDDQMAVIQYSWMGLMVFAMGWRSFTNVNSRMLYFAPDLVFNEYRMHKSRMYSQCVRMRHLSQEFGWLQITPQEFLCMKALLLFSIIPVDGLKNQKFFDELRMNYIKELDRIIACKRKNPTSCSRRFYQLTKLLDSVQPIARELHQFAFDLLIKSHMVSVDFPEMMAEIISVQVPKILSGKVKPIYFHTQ
Kind of series: Assessment of AR proteolytic activity (Western blotting of LNCap cell lysates). It is filed as cell-based. The settings on record: 24 hours of treatment, Western blotting quantified with Image J. Summed up: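 LNCap cells seeded at 5.5×10^5 per well and treated with compound for 24 hours. Lysates prepared in RIPA buffer (pH 7.5, with protease inhibitors). AR protein levels assessed by Western blot with densitometric quantification.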

The CC50 is the concentration giving 50% cytotoxicity. Compound `CC1(C)C(NC(=O)c2ccc(N3CCN(CCCOC4CCN(c5ccc6nnn(C7CCC(=O)NC7=O)c(=O)c6c5)CC4)CC3)cc2)C(C)(C)C1Oc1ccc(C#N)c(Cl)c1` (stereo not shown) [Example 39, N-((1r,3r)-3-(3-chloro-4-cyanophenoxy)-2,2,4,4-tetramethylcyclobutyl)-4-(4-(3-((1-(3-(2,6-dioxopiperidin-3-yl)-4-oxo-3,4-dihydrobenzo[d][1,2,3]triazin-6-yl)piperidin-4-yl)oxy)propyl)piperazin-1-yl)benzamide] registered a 50% cytotoxic concentration (CC50) in the series with VCaP cells of 86.6 nM. Besides, on Androgen receptor (AR), the “Degradation (1 μM treated in LNCaP, % AR remaining)” value is given as 2.1%.

In turn, `CC1(C)[C@H](NC(=O)c2ccc(N3CCN(CCCC4CCN(c5ccc6nnn(C7CCC(=O)NC7=O)c(=O)c6c5)CC4)CC3)cc2)C(C)(C)[C@H]1Oc1ccc(C#N)c(Cl)c1` (stereo partly shown) [Example 48, N-((1r,3r)-3-(3-chloro-4-cyanophenoxy)-2,2,4,4-tetramethylcyclobutyl)-4-(4-(3-(1-(3-(2,6-dioxopiperidin-3-yl)-4-oxo-3,4-dihydrobenzo[d][1,2,3]triazin-6-yl)piperidin-4-yl)propyl)piperazin-1-yl)benzamide] returned a cytotoxic concentration (CC50) in the series on VCaP cells of 77 nM. In addition, the “Degradation (1 μM treated in LNCaP, % AR remaining)” value at Androgen receptor (AR) stood at 35.2%.

Take `CC1(C)C(NC(=O)c2ccc(N3CCN(CC4CCN(CC5CCN(c6ccc7nnn(C8CCC(=O)NC8=O)c(=O)c7c6)CC5)CC4)CC3)cc2)C(C)(C)C1Oc1ccc(C#N)c(Cl)c1` (stereo not shown) [Example 70, N-((1r,3r)-3-(3-chloro-4-cyanophenoxy)-2,2,4,4-tetramethylcyclobutyl)-4-(4-((1-((1-(3-(2,6-dioxopiperidin-3-yl)-4-oxo-3,4-dihydrobenzo[d][1,2,3]triazin-6-yl)piperidin-4-yl)methyl)piperidin-4-yl)methyl)piperazin-1-yl)benzamide]: the 50% cytotoxic concentration (CC50) in the series with VCaP cells amounted to 205 nM. For the same compound, the “Degradation (1 μM treated in LNCaP, % AR remaining)” value on Androgen receptor (AR) was determined as 99%.

As to `CC1(C)C(NC(=O)c2ccc(N3CCN(CC4CCN(CCNC(=O)COc5ccc6nnn(C7CCC(=O)NC7=O)c(=O)c6c5)CC4)CC3)cc2)C(C)(C)C1Oc1ccc(C#N)c(Cl)c1` (stereo not shown) [Example 60, N-((1r,3r)-3-(3-chloro-4-cyanophenoxy)-2,2,4,4-tetramethylcyclobutyl)-4-(4-((1-(2-(2-((3-(2,6-dioxopiperidin-3-yl)-4-oxo-3,4-dihydrobenzo[d][1,2,3]triazin-6-yl)oxy)acetamido)ethyl)piperidin-4-yl)methyl)piperazin-1-yl)benzamide], in the series with VCaP cells, the CC50 was 3280 nM. For the same compound, the “Degradation (1 μM treated in LNCaP, % AR remaining)” value at Androgen receptor (AR) is reported as 20.3%.

Consider `CC1(C)C(NC(=O)c2ccc(-n3cc(CC4CCN(C(=O)C5CN(c6ccc7nnn(C8CCC(=O)NC8=O)c(=O)c7c6)C5)CC4)nn3)cc2)C(C)(C)C1Oc1ccc(C#N)c(Cl)c1` (stereo not shown) [Example 90, N-((1r,3r)-3-(3-chloro-4-cyanophenoxy)-2,2,4,4-tetramethylcyclobutyl)-4-(4-((1-(1-(3-(2,6-dioxopiperidin-3-yl)-4-oxo-3,4-dihydrobenzo[d][1,2,3]triazin-6-yl)azetidine-3-carbonyl)piperidin-4-yl)methyl)-1H-1,2,3-triazol-1-yl)benzamide], for which it took 19.6 nM to reach half-maximal cytotoxicity with VCaP cells (CC50). For the same compound, the “Degradation (1 μM treated in LNCaP, % AR remaining)” value at Androgen receptor (AR) worked out at 5%.

Turning to `CC1(C)C(NC(=O)c2ccc(C3CCN(CCOC4CCN(c5ccc6nnn(C7CCC(=O)NC7=O)c(=O)c6c5)CC4)CC3)cc2)C(C)(C)C1Oc1ccc(C#N)c(Cl)c1` (stereo not shown) [Example 76, N-((1r,3r)-3-(3-chloro-4-cyanophenoxy)-2,2,4,4-tetramethylcyclobutyl)-4-(1-(2-((1-(3-(2,6-dioxopiperidin-3-yl)-4-oxo-3,4-dihydrobenzo[d][1,2,3]triazin-6-yl)piperidin-4-yl)oxy)ethyl)piperidin-4-yl)benzamide], in the series with VCaP cells, the CC50 came to 35 nM. For the same compound, the “Degradation (1 μM treated in LNCaP, % AR remaining)” value on Androgen receptor (AR) is 30%.

For `CC1(C)C(NC(=O)c2ccc(-c3cnn(C4CCN(CC5CCN(c6ccc7nnn(C8CCC(=O)NC8=O)c(=O)c7c6)CC5)CC4)c3)cc2)C(C)(C)C1Oc1ccc(C#N)c(Cl)c1` (stereo not shown) [Example 84, N-((1r,3r)-3-(3-chloro-4-cyanophenoxy)-2,2,4,4-tetramethylcyclobutyl)-4-(1-(1-((1-(3-(2,6-dioxopiperidin-3-yl)-4-oxo-3,4-dihydrobenzo[d][1,2,3]triazin-6-yl)piperidin-4-yl)methyl)piperidin-4-yl)-1H-pyrazol-4-yl)benzamide], the cytotoxic concentration (CC50) in the series with VCaP cells is 15.4 nM. Besides, the “Degradation (1 μM treated in LNCaP, % AR remaining)” value on Androgen receptor (AR) was determined as 18%.

`CC1(C)C(NC(=O)c2ccc(N3CCN(C(=O)COc4ccc5nnn(C6CCC(=O)NC6=O)c(=O)c5c4)CC3)cc2)C(C)(C)C1Oc1ccc(C#N)c(Cl)c1` (stereo not shown) [Example 41, N-((1r,3r)-3-(3-chloro-4-cyanophenoxy)-2,2,4,4-tetramethylcyclobutyl)-4-(4-(2-((3-(2,6-dioxopiperidin-3-yl)-4-oxo-3,4-dihydrobenzo[d][1,2,3]triazin-6-yl)oxy)acetyl)piperazin-1-yl)benzamide] gave a CC50 in the series with VCaP cells of 20 nM. Besides, the “Degradation (1 μM treated in LNCaP, % AR remaining)” value at Androgen receptor (AR) was 12.3%.

Compound `CC1(C)[C@H](NC(=O)c2ccc(N3CC4CC3CN4CC3CCN(C(=O)C4CN(c5ccc6nnn(C7CCC(=O)NC7=O)c(=O)c6c5)C4)CC3)cc2)C(C)(C)[C@H]1Oc1ccc(C#N)c(Cl)c1` (stereo partly shown) [Example 73, N-((1r,3r)-3-(3-chloro-4-cyanophenoxy)-2,2,4,4-tetramethylcyclobutyl)-4-(5-((1-(1-(3-(2,6-dioxopiperidin-3-yl)-4-oxo-3,4-dihydrobenzo[d][1,2,3]triazin-6-yl)azetidine-3-carbonyl)piperidin-4-yl)methyl)-2,5-diazabicyclo[2.2.1]heptan-2-yl)benzamide] yielded a CC50 with VCaP cells of 79.5 nM. On Androgen receptor (AR), the “Degradation (1 μM treated in LNCaP, % AR remaining)” value was 40%.

On to `CC1(C)C(NC(=O)c2ccc(N3CCN(CCCOC4CCN(C(=O)C5CN(c6ccc7nnn(C8CCC(=O)NC8=O)c(=O)c7c6)C5)CC4)CC3)cc2)C(C)(C)C1Oc1ccc(C#N)c(Cl)c1` (stereo not shown) [Example 36, N-((1r,3r)-3-(3-chloro-4-cyanophenoxy)-2,2,4,4-tetramethylcyclobutyl)-4-(4-(3-((1-(1-(3-(2,6-dioxopiperidin-3-yl)-4-oxo-3,4-dihydrobenzo[d][1,2,3]triazin-6-yl)azetidine-3-carbonyl)piperidin-4-yl)oxy)propyl)piperazin-1-yl)benzamide], for which, in the series on VCaP cells, half-maximal cytotoxicity (CC50) was put at 36.5 nM. Moreover, the “Degradation (1 μM treated in LNCaP, % AR remaining)” value at Androgen receptor (AR) was determined as 9.8%.

Compound `CC1(C)C(NC(=O)c2ccc(N3CCN(CC4(O)CCN(C(=O)CNc5ccc6nnn(C7CCC(=O)NC7=O)c(=O)c6c5)CC4)CC3)cc2)C(C)(C)C1Oc1ccc(C#N)c(Cl)c1` (stereo not shown) [Example 53, N-((1r,3r)-3-(3-chloro-4-cyanophenoxy)-2,2,4,4-tetramethylcyclobutyl)-4-(4-((1-((3-(2,6-dioxopiperidin-3-yl)-4-oxo-3,4-dihydrobenzo[d][1,2,3]triazin-6-yl)glycyl)-4-hydroxypiperidin-4-yl)methyl)piperazin-1-yl)benzamide] came in with a 50% cytotoxic concentration (CC50) in the series with VCaP cells of 19.7 nM. Besides, on Androgen receptor (AR), the “Degradation (1 μM treated in LNCaP, % AR remaining)” value was determined as 5.8%.
